Measured values: the NIST ThermoML archive (doi:10.1021/je400405m)
± gives the expanded uncertainty stated by the source.

Experiment: wn = mass fraction of the nth substance listed
Settings: w1 = 0.0516; for surface tension liquid-gas: Maximal bubble pressure; for viscosity / mass density: 101 kPa, Liquid; for viscosity: Capillary tube (Ostwald / Ubbelohde) method; for mass density: Pycnometric method

C1CNCCN1 [piperazine] + O
Settings	mass density [kg/m3]	surface tension liquid-gas [mN/m]	viscosity [mPa·s]
303.15 K	998.03 ± 0.4	68.55 ± 0.54	0.948 ± 0.009
313.15 K	994.71 ± 0.44	66.97 ± 0.53	0.75 ± 0.007
323.15 K	990.08 ± 0.47	65.1 ± 0.52	0.616 ± 0.006
